Reference: US7462600B2, “Macrolides” (Pfizer Inc, priority 2004, dated 2008)
In brackets after ≈: the same amount, converted by molar mass. Read-outs that look alike come from different tables or passages of the source.

Columns and labels:
Format in all cases: cell-based
[1] = test system: Streptococcus pyogenes 1079; assay: MIC, microtiter broth dilution (NCCLS M100-S14), S. pyogenes 1079 (ermB)
Method in brief: (§1)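 Antibacterial activity is expressed as the MIC from broth microdilution. Reading follows the NCCLS M100-S14 performance standards, and stocks are made in DMSO at 40 mg/ml.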

[2] = test system: Streptococcus pneumoniae 1095; conditions: microtiter broth dilution
Method in brief: as §1

[3] = test system: Streptococcus pneumoniae 1175; conditions: microtiter broth dilution
Method in brief: as §1

[4] = test system: Haemophilus influenzae 1218; assay: MIC, microtiter broth dilution (NCCLS M100-S14), H. influenzae 1218 (susceptible)
Method in brief: as §1

[5] = test system: Streptococcus pneumoniae 1016; assay: MIC, microtiter broth dilution (NCCLS M100-S14), S. pneumoniae 1016 (susceptible)
Method in brief: as §1

[6] = H. influenzae 1218 (susceptible)
[7] = S. pneumoniae 1016 (susceptible)

Structure (SMILES)	MIC S. pyogenes 1079 ([1]; S. pyogenes 1079 (ermB)) [µg/mL]	MIC S. pneumo. 1095 ([2]; S. pneumoniae 1095 (ermB)) [µg/mL]	MIC S. pneumo. 1175 ([3]; S. pneumoniae 1175 (mefA)) [µg/mL]	MIC H. influenzae 1218 [4, 6] [µg/mL]	MIC S. pneumo. 1016 [5, 7] [µg/mL]	MIC S. pyogenes 1079 ([1]; Streptococcus pyogenes 1079) [µg/mL]	MIC S. pneumo. 1095 ([2]; Streptococcus pneumoniae 1095) [µg/mL]	MIC S. pneumo. 1175 ([3]; Streptococcus pneumoniae 1175) [µg/mL]	MIC H. influenzae 1218 ([4]; Haemophilus influenzae 1218) [µg/mL]	MIC S. pneumo. 1016 ([5]; Streptococcus pneumoniae 1016) [µg/mL]
CC[C@H]1OC(=O)[C@H](C)C(=O)[C@H](C)[C@@H](O[C@@H]2O[C@H](C)C[C@H](N(C)C)[C@H]2O)[C@](C)(OC)C[C@@H](C)C(=O)[C@H](C)[C@H]2N(CC3(C)CN(Cc4nc5ccccc5[nH]4)C3)C(=O)O[C@]12C.O=CO [6.11]	>64.00	0.25	<0.06	1	<0.06	–	–	–	–	–
CC[C@H]1OC(=O)[C@H](C)[C@@H](OC(=O)N2CCCC2)[C@H](C)[C@@H](O[C@@H]2O[C@H](C)C[C@H](N(C)C)[C@H]2O)[C@](C)(OC)C[C@@H](C)C(=O)[C@H](C)[C@H]2N(CC3CN(Cc4nc5ccccc5[nH]4)C3)C(=O)O[C@]12C [Example 5.11, 2-R^2: (1H-benzo[d]imidazol-2-yl)methyl; R^#: pyrrolidin-1-yl]	–	–	–	–	–	32 (≈ 35.1 µM)	1 (≈ 1.1 µM)	<0.06	1 (≈ 1.1 µM)	<0.06
CCC1OC(=O)C(C)C(=O)C(C)C(OC2OC(C)CC(N(C)C)C2O)C(C)(OC)CC(C)C(=O)C(C)C2N(C3CN(Cc4n[nH]c5ccccc45)C3)C(=O)OC12C (stereo not shown) [Example 1.29, 3-descladinosyl-11,12-dideoxy-6-O-methyl-3-oxo-12,11-(oxycarbonyl-(1-((indazol-3-yl)-methyl)-azetidin-3-yl)-imino)-erythromycin A]	–	–	–	–	–	2 (≈ 2.51 µM)	<0.06	1 (≈ 1.25 µM)	0.5 (≈ 0.627 µM)	<0.06
CCC1OC(=O)C(C)C(=O)C(C)C(OC2OC(C)CC(N(C)C)C2O)C(C)(OC)CC(C)C(=O)C(C)C2N(C3CN(S(=O)(=O)c4ccc5c(c4)CC(=O)N5)C3)C(=O)OC12C (stereo not shown) [Example 3.42, 3-descladinosyl-11,12-dideoxy-6-O-methyl-3-oxo-12,11-(oxycarbonyl-(1-(2-oxoindoline-5-sulfonyl)-azetidin-3-yl)-imino)-erythromycin A]	–	–	–	–	–	2 (≈ 2.32 µM)	<0.06	0.5 (≈ 0.579 µM)	2 (≈ 2.32 µM)	<0.06
CC[C@H]1OC(=O)[C@H](C)C(=O)[C@H](C)[C@@H](O[C@@H]2O[C@H](C)C[C@H](N(C)C)[C@H]2O)[C@](C)(OC)C[C@@H](C)C(=O)[C@H](C)[C@H]2N(CC3(O)CN(C(=O)c4cc5ccncc5[nH]4)C3)C(=O)O[C@]12C [7.27]	>64.00	<0.06	1 (≈ 1.19 µM)	1 (≈ 1.19 µM)	<0.06	–	–	–	–	–
CCC1OC(=O)C(C)C(=O)C(C)C(OC2OC(C)CC(N(C)C)C2O)C(C)(OC)CC(C)C(=O)C(C)C2N(CC3CN(C(=O)c4cccc5ncccc45)C3)C(=O)OC12C (stereo not shown) [4.32]	–	–	–	–	–	64 (≈ 76.5 µM)	0.5 (≈ 0.597 µM)	<0.06	1 (≈ 1.19 µM)	<0.06
CCC1OC(=O)C(C)C(=O)C(C)C(OC2OC(C)CC(N(C)C)C2O)C(C)(OC)CC(C)C(=O)C(C)C2N(C3CN(Cc4ccncc4Br)C3)C(=O)OC12C (stereo not shown) [Example 1.77, 3-descladinosyl-11,12-dideoxy-6-O-methyl-3-oxo-12,11-(oxycarbonyl-(1-(3-bromopyridine-4-methyl)-azetidin-3-yl)-imino)-erythromycin A]	–	–	–	–	–	1 (≈ 1.19 µM)	<0.063	<0.063	0.5 (≈ 0.597 µM)	<0.063
CCC1OC(=O)C(C)C(=O)C(C)C(OC2OC(C)CC(N(C)C)C2O)C(C)(OC)CC(C)C(=O)C(C)C2N(CC3C4CN(C(=O)c5cccnc5)CC43)C(=O)OC12C (stereo not shown) [16.02]	>100.00	3.12 (≈ 3.84 µM)	0.78 (≈ 0.959 µM)	0.78 (≈ 0.959 µM)	0.02 (≈ 0.0246 µM)	–	–	–	–	–
CCC1OC(=O)C(C)C(=O)C(C)C(OC2OC(C)CC(N(C)C)C2O)C(C)(OC)CC(C)C(=O)C(C)C2N(C3CN(S(=O)(=O)c4ccc(C#N)cc4)C3)C(=O)OC12C (stereo not shown) [Example 3.11, 3-descladinosyl-11,12-dideoxy-6-O-methyl-3-oxo-12,11-(oxycarbonyl-(1-(4-cyanobenzenesulfonyl)-azetidin-3-yl)-imino)-erythromycin A]	–	–	–	–	–	8 (≈ 9.6 µM)	<0.06	0.5 (≈ 0.6 µM)	0.25 (≈ 0.3 µM)	<0.06
CCC1OC(=O)C(C)C(=O)C(C)C(OC2OC(C)CC(N(C)C)C2O)C(C)(OC)CC(C)C(=O)C(C)C2N(C3CN(S(=O)(=O)c4cccc(-c5nnco5)c4)C3)C(=O)OC12C (stereo not shown) [Example 3.62, 3-descladinosyl-11,12-dideoxy-6-O-methyl-3-oxo-12,11-(oxycarbonyl-(1-(3-(1,3,4-oxadiazol-2-yl)benzenesulfonyl)-azetidin-3-yl)-imino)erythromycin A]	–	–	–	–	–	8 (≈ 9.13 µM)	<0.06	0.5 (≈ 0.571 µM)	2 (≈ 2.28 µM)	<0.06
CCC1OC(=O)C(C)C(=O)C(C)C(OC2OC(C)CC(N(C)C)C2O)C(C)(OC)CC(C)C(=O)C(C)C2N(CC3CCN(C(=O)c4cnc5ccccc5c4)C3)C(=O)OC12C (stereo not shown) [13.10]	>64.00	>64.00	0.25 (≈ 0.294 µM)	4 (≈ 4.7 µM)	<0.06	–	–	–	–	–
CCC1OC(=O)C(C)C(=O)C(C)C(OC2OC(C)CC(N(C)C)C2O)C(C)(OC)CC(C)C(=O)C(C)C2N(CC3CCCN3C(=O)c3cccn(Cc4ccccc4)c3=O)C(=O)OC12C (stereo not shown) [10.36]	>64.00	4 (≈ 4.41 µM)	0.5 (≈ 0.551 µM)	16 (≈ 17.6 µM)	<0.06	–	–	–	–	–
CCC1OC(=O)C(C)C(=O)C(C)C(OC2OC(C)CC(N(C)C)C2O)C(C)(OC)CC(C)C(=O)C(C)C2N(C3CN(Cc4ccnc5ccc(OC)cc45)C3)C(=O)OC12C (stereo not shown) [Example 1.90, 3-descladinosyl-11,12-dideoxy-4-O-methyl-3-oxo-12,11-(oxycarbonyl-(1-(6-methoxyquinoline-4-methyl)-azetidin-3-yl)-imino)-erythromycin A]	–	–	–	–	–	2 (≈ 2.38 µM)	0.125 (≈ 0.149 µM)	<0.063	2 (≈ 2.38 µM)	<0.063
CCC1OC(=O)C(C)C(=O)C(C)C(OC2OC(C)CC(N(C)C)C2O)C(C)(OC)CC(C)C(=O)C(C)C2N(C3CN(S(=O)(=O)c4ccc(OC)c(OCC#N)c4)C3)C(=O)OC12C (stereo not shown) [Example 3.109, 3-descladinosyl-11,12-dideoxy-6-O-methyl-3-oxo-12,11-(oxycarbonyl-(1-(3-(cyanomethoxy)-4-methoxybenzene-1-sulfonyl)-azetidin-3-yl)-imino)-erythromycin A]	–	–	–	–	–	0.125 (≈ 0.14 µM)	<0.063	<0.063	<0.063	<0.063
CCC1OC(=O)C(C)C(=O)C(C)C(OC2OC(C)CC(N(C)C)C2O)C(C)(OC)CC(C)C(=O)C(C)C2N(CC3CCCN3C(=O)c3ccc4cccnc4c3)C(=O)OC12C.O=CO (stereo not shown) [10.15]	>64.00	<0.06	0.25	2	<0.06	–	–	–	–	–
CCC1OC(=O)C(C)C(=O)C(C)C(OC2OC(C)CC(N(C)C)C2O)C(C)(OC)CC(C)C(=O)C(C)C2N(CC3CCN(Cc4c[nH]c5cc(=O)[nH]cc45)C3)C(=O)OC12C (stereo not shown) [13.02]	64 (≈ 76 µM)	16 (≈ 19 µM)	4 (≈ 4.75 µM)	16 (≈ 19 µM)	0.12 (≈ 0.143 µM)	–	–	–	–	–
CCC1OC(=O)C(C)C(=O)C(C)C(OC2OC(C)CC(N(C)C)C2O)C(C)(OC)CC(C)C(=O)C(C)C2N(C3CN(C(=O)Nc4ccc5ccccc5c4)C3)C(=O)OC12C (stereo not shown) [Example 2.04]	–	–	–	–	–	32 (≈ 38.2 µM)	8 (≈ 9.56 µM)	<0.06	8 (≈ 9.56 µM)	<0.06
